pIC50: −log10 of the molar value.

In general, pIC50 refers to the IC50 on a negative log10 scale, so that one unit is a factor of ten.

This assay has as its target T1, chimeric human RORγ-Gal4 receptor (Homo sapiens, UniProt P51449).
T1 sequence (P51449 269-508 limits assumed): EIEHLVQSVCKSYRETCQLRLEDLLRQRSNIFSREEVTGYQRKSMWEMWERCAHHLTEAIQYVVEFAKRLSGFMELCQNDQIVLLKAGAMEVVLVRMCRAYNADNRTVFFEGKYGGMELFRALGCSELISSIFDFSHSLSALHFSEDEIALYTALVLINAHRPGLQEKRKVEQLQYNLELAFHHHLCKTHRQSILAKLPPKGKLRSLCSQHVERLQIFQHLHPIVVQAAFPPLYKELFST
The assay is described as follows: transient transactivation assay (RORγ-Gal4 luciferase reporter). Format: cell-based. As to conditions: Cos-7 cells transfected with RORγ-Gal4 and 5Gal4 pGL3 TK Luc reporter; overnight incubation; T0901317 at 10^-5 M as reference; read-out: IC50.
On to `Cc1cc(C(F)(F)F)cc2c1nc(Cc1c(Cl)ccc(C(=O)N3CCC(N(C)C)CC3)c1Cl)n2C` [BJ-30], for which the pIC50 is 6.30 to 7.00.
Take `Cc1cc(C(F)(F)F)cc2c1nc(Cc1c(Cl)ccc(C(=O)N3CCN(C)C(C)C3)c1Cl)n2C` (stereo not drawn) [BJ-31]: the pIC50 is 5.00 to 6.00.
With `Cc1cc(C(F)(F)F)cc2c1nc(Cc1c(Cl)ccc(C(=O)N3CCN(C4COC4)CC3)c1Cl)n2C` [BJ-38] the figure was 6.30 to 7.00; with `Cc1cc(C(F)(F)F)cc2c1nc(Cc1c(Cl)ccc(C(=O)N3CCN(C(C)C)CC3)c1Cl)n2C` [BJ-40], 6.30 to 7.00; with `COCCC1CCN(C(=O)c2ccc(Cl)c(Cc3nc4c(C)cc(C#N)cc4n3C)c2Cl)CC1` [BN-3], 6.30 to 7.00.
With `Cc1cc(C#N)cc2c1nc(Cc1c(Cl)ccc(C(=O)N3CCC(C(C)(C)CO)CC3)c1Cl)n2C` [BN-6] the figure was 6.30 to 7.00; with `Cc1cc(C#N)cc2c1nc(Cc1c(Cl)ccc(C(=O)N3CCC(C(C)(C)O)CC3)c1Cl)n2C` [BN-7], 6.30 to 7.00.
Under `Cc1cc(C#N)cc2c1nc(Cc1c(Cl)ccc(C(=O)N3CCC4(CCOC4)CC3)c1Cl)n2C` [BN-8] stands 6.30 to 7.00; under `Cc1cc(C#N)cc2c1nc(Cc1c(Cl)ccc(C(=O)N3CCN(C4COC4)CC3)c1Cl)n2C` [BN-11], 6.00 to 6.30; under `Cc1cc(C#N)cc2c1nc(Cc1c(Cl)ccc(C(=O)N3CCC(C4COC4)CC3)c1Cl)n2C` [BN-12], 6.30 to 7.00.
For the molecule `Cc1cc(C#N)cc2c1nc(Cc1c(Cl)ccc(C(=O)N3CCC(N(C)C)CC3)c1Cl)n2C` [BN-14], the pIC50 is 5.00 to 6.00.
With `Cc1cc(C#N)cc2c1nc(Cc1c(Cl)ccc(C(=O)N3CCC(CC(C)(C)O)CC3)c1Cl)n2C` [BN-16] the figure was 6.00 to 6.30.
Take `Cc1cc(C(F)(F)F)cc2c1nc(Cc1c(Cl)ccc(CN3CCC(C4COC4)CC3)c1Cl)n2C` [BW-1]: the pIC50 was 6.30 to 7.00.
Take `COC1CCN(Cc2ccc(Cl)c(Cc3nc4c(C)cc(C(F)(F)F)cc4n3C)c2Cl)CC1` [BW-2]: the pIC50 was 6.30 to 7.00.
Turning to `COCC1CCN(Cc2ccc(Cl)c(Cc3nc4c(C)cc(C(F)(F)F)cc4n3C)c2Cl)CC1` [BW-3], the pIC50 is 6.30 to 7.00.
Under `Cc1cc(C(F)(F)F)cc2c1nc(Cc1c(Cl)ccc(CN3CCC(O)CC3)c1Cl)n2C` [BW-4] stands 6.30 to 7.00; under `Cc1cc(C(F)(F)F)cc2c1nc(Cc1c(Cl)ccc(CN3CCCC(O)C3)c1Cl)n2C` (stereo not drawn) [BW-5], 6.30 to 7.00; under `Cc1cc(C(F)(F)F)cc2c1nc(Cc1c(Cl)ccc(CN3CCC(C(C)(C)CO)CC3)c1Cl)n2C` [BW-6], 6.30 to 7.00.
With `Cc1cc(C(F)(F)F)cc2c1nc(Cc1c(Cl)ccc(CN3CCC(C(C)(C)O)CC3)c1Cl)n2C` [BW-7] the figure was 6.30 to 7.00; with `Cc1cc(C(F)(F)F)cc2c1nc(Cc1c(Cl)ccc(CN3CCC4(CCOC4)CC3)c1Cl)n2C` [BW-8], 6.30 to 7.00.
Consider `COCCN1CCN(Cc2ccc(Cl)c(Cc3nc4c(C)cc(C(F)(F)F)cc4n3C)c2Cl)CC1` [BW-9], for which the pIC50 was 6.30 to 7.00.
With `Cc1cc(C(F)(F)F)cc2c1nc(Cc1c(Cl)ccc(CN3CCOCC3)c1Cl)n2C` [BW-10] the figure was 6.30 to 7.00.
With `Cc1cc(C(F)(F)F)cc2c1nc(Cc1c(Cl)ccc(CN3CCC(CCO)CC3)c1Cl)n2C` [BW-11], the pIC50 was 6.30 to 7.00.
Regarding `Cc1cc(C(F)(F)F)cc2c1nc(Cc1c(Cl)ccc(CN3CCC(CC(C)(C)O)CC3)c1Cl)n2C` [BW-12], the pIC50 was 6.00 to 6.30.
For the molecule `Cc1cc(C(F)(F)F)cc2c1nc(Cc1c(Cl)ccc(CN3CCC(C(C)O)CC3)c1Cl)n2C` (stereo not drawn) [BW-13], the pIC50 is 6.30 to 7.00.
Turning to `Cc1cc(C(F)(F)F)cc2c1nc(Cc1c(Cl)ccc(CN3CCC(CO)CC3)c1Cl)n2C` [BW-14], the pIC50 is 6.30 to 7.00.
Under `Cc1cc(C(F)(F)F)cc2c1nc(Cc1c(Cl)ccc(CN3CCN(CC(F)(F)F)CC3)c1Cl)n2C` [BW-15] stands 6.30 to 7.00; under `Cc1cc(C(F)(F)F)cc2c1nc(Cc1c(Cl)ccc(CN3CCC(N(C)C)CC3)c1Cl)n2C` [BW-16], 5.00 to 6.00.
Under `Cc1cc(C(F)(F)F)cc2c1nc(Cc1c(Cl)ccc(CN3CCCC(C)(O)C3)c1Cl)n2C` (stereo not drawn) [BW-17] stands 6.30 to 7.00; under `CCN(CCO)Cc1ccc(Cl)c(Cc2nc3c(C)cc(C(F)(F)F)cc3n2C)c1Cl` [BW-18], 6.00 to 6.30.
Under `Cn1c(Cc2c(Cl)ccc(C(=O)N3CCOCC3)c2Cl)nc2c(C(F)(F)F)cc(Br)cc21` [CE, (3-((6-bromo-1-methyl-4-(trifluoromethyl)-1H-benzo[d]imidazol-2-yl)methyl)-2,4-dichlorophenyl)(morpholino)methanone] stands 6.30 to 7.00; under `Cn1c(Cc2c(Cl)ccc(C(=O)N3CCOCC3)c2Cl)nc2c(C(F)(F)F)cc(C#N)cc21` [CF, 2-(2,6-dichloro-3-(morpholine-4-carbonyl)benzyl)-1-methyl-4-(trifluoromethyl)-1H-benzo[d]imidazole-6-carbonitrile], 6.00 to 6.30.
For `CCn1c(Cc2c(Cl)ccc(C(=O)N3CCOCC3)c2Cl)nc2c(C)cc(C#N)cc21` [CG, 2-(2,6-dichloro-3-(morpholine-4-carbonyl)benzyl)-1-ethyl-4-methyl-1H-benzo[d]imidazole-6-carbonitrile], the pIC50 was 6.00 to 6.30.
As to `Cc1cc(C#N)cc2c1nc(Cc1c(Cl)ccc(C(=O)N3CCOCC3)c1Cl)n2C(C)C` [CH, 2-(2,6-dichloro-3-(morpholine-4-carbonyl)benzyl)-1-isopropyl-4-methyl-1H-benzo[d]imidazole-6-carbonitrile], the pIC50 is over 7.00.
As to `Cc1cc(C#N)nc2c1nc(Cc1c(Cl)ccc(C(=O)N3CCOCC3)c1Cl)n2C` [CI, 2-(2,6-dichloro-3-(morpholine-4-carbonyl)benzyl)-3,7-dimethyl-3H-imidazo[4,5-b]pyridine-5-carbonitrile], the pIC50 was 5.00 to 6.00.
Under `Cn1c(Cc2c(Cl)ccc(C(=O)N3CCOCC3)c2Cl)cc2c(Cl)cc(C#N)cc21` [CJ, 4-chloro-2-(2,6-dichloro-3-(morpholine-4-carbonyl)benzyl)-1-methyl-1H-indole-6-carbonitrile] stands 5.00 to 6.00; under `Cn1c(Cc2c(Cl)ccc(C(=O)N3CCOCC3)c2Cl)cc2cccnc21` [CK, (2,4-dichloro-3-((1-methyl-1H-pyrrolo[2,3-b]pyridin-2-yl)methyl)phenyl)(morpholino)methanone], 5.00 to 6.00; under `Cc1cc(C#N)nc2c1cc(Cc1c(Cl)ccc(C(=O)N3CCC(O)CC3)c1Cl)n2C` [CL-1], over 7.00.
As for `Cc1cc(C#N)nc2c1cc(Cc1c(Cl)ccc(C(=O)N3CCC(C4COC4)CC3)c1Cl)n2C` [CL-2], the pIC50 was over 7.00.
In the case of `Cc1cc(Cl)nc2c1cc(Cc1c(Cl)ccc(C(=O)N3CCOCC3)c1Cl)n2C` [CM1, (2,4-dichloro-3-((6-chloro-1,4-dimethyl-1H-pyrrolo[2,3-b]pyridin-2-yl)methyl)phenyl)(morpholino)methanone], the pIC50 is over 7.00.
Under `Cc1cc(C(F)(F)F)nc2c1cc(Cc1c(Cl)ccc(C(=O)N3CCOCC3)c1Cl)n2C` [CM, (2,4-dichloro-3-((1,4-dimethyl-6-(trifluoromethyl)-1H-pyrrolo[2,3-b]pyridin-2-yl)methyl)phenyl)(morpholino)methanone] stands over 7.00; under `Cn1c(C(=O)c2c(Cl)ccc(C(=O)N3CCOCC3)c2Cl)cc2ncc(C(F)(F)F)cc21` [CP, (2,4-dichloro-3-(1-methyl-6-(trifluoromethyl)-1H-pyrrolo[3,2-b]pyridine-2-carbonyl)phenyl)(morpholino)methanone], 5.00 to 6.00.

The values above are taken from patent US10106501B2, “Nuclear receptor modulators” (AbbVie Inc., priority 2015, dated 2018).
